Experimental data as given in patent US20240174714A1, “TREATMENT OF SKIN DISORDERS” (priority 2021, published 2024).
In brackets after ≈: the same amount, converted by molar mass. Where two headings read alike, the source gives them in different places. Square brackets hold non-standard residues; d marks the D form. Peptide text beside a SMILES is read from it. * marks the point of attachment. NH((S)CH(Me)CH2NMe2) = C[C@@H](CN(C)C)N*; NH(1-CH2NMe2-cBu) = CN(C)CC1(N*)CCC1; dGly(nOct) = CCCCCCCC[C@@H](N)C(=O)O; Gly(octyl) = CCCCCCCC[C@H](N)C(=O)O; Oxazole4CO(2-Me) = Cc1nc(C(=O)*)co1; d(hCha) = N[C@H](CCC1CCCCC1)C(=O)O; Benzoyl(4-F) = O=C(c1ccc(F)cc1)*; hCha = N[C@@H](CCC1CCCCC1)C(=O)O; Aoc(2) = CCCCCC[C@H](N)C(=O)O; X3 = C[C@@H](CN1CCOCC1)N*; X9 = O=C(c1ccc2ocnc2c1)*; Aib = CC(C)(N)C(=O)O; X1 = COCCN(CCN*)CCOC; βAla = NCCC(=O)O; tBu = CC(C)(C)*

Columns and labels:
[1] = tested on: intracellular Leishmania donovani MHOM-ET-67/L82 amastigotes; assay: In vitro antiprotozoal assay, intracellular amastigotes; format: cell-based; conditions: intracellular amastigotes; read-out: L.don.InMac IC50
Method: (§1) The testing of the inventive compounds against Leishmania donovani (strain MHOM/ET/67/L82) was performed in 96 well plates at concentrations in serial dilutions. Tests were done in triplicate.

[2] = tested on: axenic Leishmania donovani MHOM-ET-67/L82 amastigotes; assay: In vitro antiprotozoal assay, axenic amastigotes; format: cell-based
Method: as §1

[3] = Cytotoxicity assay (Alamar Blue) on L6-cells; format: cell-based, rat
Method: Tests were done in triplicate.
The plates were incubated for additional 2 h.

[4] = tested on: Staphylococcus aureus ATCC BAA-1556, USA300 MRSA; assay: microbe, parasite or virus in culture; format: cell-based; conditions: ATCC BAA-1556
Method: Pre-formulated compound solution was diluted in 100% DMSO to prepare a 1.6 mg/mL working stock solution. […] The concentration range was 0.032 to 32 μg/mL.

[5] = axenic amastigotes, read-out: L.don.ax. IC50

Row | MIC [4] [µg/mL] | Structure (SMILES) | IC50 [1] [nM] | IC50 [2, 5] [nM] | IC50 at 68 h ([3]; rat) [nM] | IC50 [2] [nM] | IC50 at 68 h ([3]; rat myoblast L6 cells, read-out: Cytotox L6 IC50) [nM]
1 |  | CCCCCCCC[C@H](NC(=O)[C@@H]1CCCN1C(=O)c1ccc2ocnc2c1)C(=O)N[C@@H](CC(C)C)C(=O)NC(C)(C)C(=O)N[C@@H](CC(C)C)C(=O)N[C@@H](CC(C)C)C(=O)NC(C)(C)C(=O)NC(C)(C)C(=O)NCCC(=O)N[C@@H](C)CN(C)C [Compound 5937, (2S)-2-{[(2S)-1-(1,3-benzoxazole-5-carbonyl)pyrrolidin-2-yl]formamido}-N-[(1S)-1-[(1-{[(1S)-1-{[(1S)-1-{[1-({1-[(2-{[(2S)-1-(dimethylamino)propan-2-yl]carbamoyl}ethyl)carbamoyl]-1-methylethyl}carbamoyl)-1-methylethyl]carbamoyl}-3-methylbutyl]carbamoyl}-3-methylbutyl]carbamoyl}-1-methylethyl)carbamoyl]-3-methylbutyl]decanamide] (X9-P[Gly(octyl)]L[Aib]LL[Aib][Aib][βAla]-{NH((S)CH(Me)CH2NMe2)}) | 58.5 | 21.2 | 1160 |  | 
2 |  | Cc1nc(C(=O)N2CCC[C@H]2C(=O)N[C@@H](CCC2CCCCC2)C(=O)N[C@@H](CC(C)C)C(=O)NC(C)(C)C(=O)N[C@@H](CC(C)C)C(=O)N[C@@H](CC(C)C)C(=O)NC(C)(C)C(=O)NC(C)(C)C(=O)NCCC(=O)N[C@@H](C)CN2CCOCC2)co1 [Compound 6026, (2S)-2-[(2S)-2-{2-[(2S)-2-[(2S)-4-cyclohexyl-2-{[(2S)-1-(2-methyl-1,3-oxazole-4-carbonyl)pyrrolidin-2-yl]formamido}butanamido]-4-methylpentanamido]-2-methylpropanamido}-4-methylpentanamido]-4-methyl-N-[1-methyl-1-({1-methyl-1-[(2-{[(2S)-1-(morpholin-4-yl)propan-2-yl]carbamoyl}ethyl)carbamoyl]ethyl}carbamoyl)ethyl]pentanamide] ({Oxazole4CO(2-Me)}-P[hCha]L[Aib]LL[Aib][Aib][βAla]-X3) | 50.7 | 4.2 | 1580 |  | 
3 |  | CC(C)C[C@H](NC(=O)[C@H](CCC1CCCCC1)NC(=O)[C@@H]1CCCN1C(=O)c1ccc(F)cc1)C(=O)NC(C)(C)C(=O)N[C@@H](CC(C)C)C(=O)N[C@@H](CC(C)C)C(=O)NC(C)(C)C(=O)NC(C)(C)C(=O)NCCC(=O)N[C@@H](C)CN1CCOCC1 [Compound 6028, (2S)-2-[(2S)-2-{2-[(2S)-2-[(2S)-4-cyclohexyl-2-{[(2S)-1-(4-fluorobenzoyl)pyrrolidin-2-yl]formamido}butanamido]-4-methylpentanamido]-2-methylpropanamido}-4-methylpentanamido]-4-methyl-N-[1-methyl-1-({1-methyl-1-[(2-{[(2S)-1-(morpholin-4-yl)propan-2-yl]carbamoyl}ethyl)carbamoyl]ethyl}carbamoyl)ethyl]pentanamide] ({Benzoyl(4-F)}-P[hCha]L[Aib]LL[Aib][Aib][βAla]-X3) | 418 | 3.3 | 1590 |  | 
4 |  | Cc1nc(C(=O)N2CCC[C@H]2C(=O)N[C@@H](COC(C)(C)C)C(=O)N[C@@H](CC(C)C)C(=O)NC(C)(C)C(=O)N[C@@H](CC(C)C)C(=O)N[C@@H](CC(C)C)C(=O)NC(C)(C)C(=O)NC(C)(C)C(=O)NCCC(=O)NC2(CN(C)C)CCC2)co1 [Compound 6780, (2S)-2-[(2S)-2-{2-[(2S)-2-[(2S)-3-(tert-butoxy)-2-{[(2S)-1-(2-methyl-1,3-oxazole-4-carbonyl)pyrrolidin-2-yl]formamido}propanamido]-4-methylpentanamido]-2-methylpropanamido}-4-methylpentanamido]-N-{1-[(1-{[2-({1-[(dimethylamino)methyl]cyclobutyl}carbamoyl)ethyl]carbamoyl}-1-methylethyl)carbamoyl]-1-methylethyl}-4-methylpentanamide] ({Oxazole4CO(2-Me)}-PS(tBu)L[Aib]LL[Aib][Aib][βAla]-{NH(1-CH2NMe2-cBu)}) | 997 | 166 | 8750 |  | 
5 | 16 (≈ 13.7 µM) | CCCCCCCC[C@@H](NC(=O)[C@@H]1CCCN1C(=O)c1coc(C)n1)C(=O)N[C@@H](CC(C)C)C(=O)NC(C)(C)C(=O)N[C@@H](CC(C)C)C(=O)N[C@@H](CC(C)C)C(=O)NC(C)(C)C(=O)NC(C)(C)C(=O)NCCC(=O)NC1(CN(C)C)CCC1 [Compound 6789, (2R)-N-[(1S)-1-[(1-{[(1S)-1-{[(1S)-1-({1-[(1-{[2-({1-[(dimethylamino)methyl]cyclobutyl}carbamoyl)ethyl]carbamoyl}-1-methylethyl)carbamoyl]-1-methylethyl}carbamoyl)-3-methylbutyl]carbamoyl}-3-methylbutyl]carbamoyl}-1-methylethyl)carbamoyl]-3-methylbutyl]-2-{[(2S)-1-(2-methyl-1,3-oxazole-4-carbonyl)pyrrolidin-2-yl]formamido}decanamide] ({Oxazole4CO(2-Me)}-P[dGly(nOct)]L[Aib]LL[Aib][Aib][βAla]-{NH(1-CH2NMe2-cBu)}) | 65 | 3.4 | 4280 |  | 
6 | 32 (≈ 26.3 µM) | COCCN(CCNC(=O)CCNC(=O)C(C)(C)NC(=O)C(C)(C)NC(=O)[C@H](CC(C)C)NC(=O)[C@H](CC(C)C)NC(=O)C(C)(C)NC(=O)[C@H](CC(C)C)NC(=O)[C@H](CCC1CCCCC1)NC(=O)[C@@H]1CCCN1C(=O)c1coc(C)n1)CCOC [Compound 6791, (2S)-N-(1-{[(1S)-1-{[(1S)-1-({1-[(1-{[2-({2-[bis(2-methoxyethyl)amino]ethyl}carbamoyl)ethyl]carbamoyl}-1-methylethyl)carbamoyl]-1-methylethyl}carbamoyl)-3-methylbutyl]carbamoyl}-3-methylbutyl]carbamoyl}-1-methylethyl)-2-[(2S)-4-cyclohexyl-2-{[(2S)-1-(2-methyl-1,3-oxazole-4-carbonyl)pyrrolidin-2-yl]formamido}butanamido]-4-methylpentanamide] ({Oxazole4CO(2-Me)}-P[hCha]L[Aib]LL[Aib][Aib][βAla]-X1) | 179 | 2.1 | 8230 |  | 
7 |  | CCCCCC[C@H](NC(=O)[C@@H]1CCCN1C(=O)c1coc(C)n1)C(=O)N[C@@H](CC(C)C)C(=O)NC(C)(C)C(=O)N[C@@H](CC(C)C)C(=O)N[C@@H](CC(C)C)C(=O)NC(C)(C)C(=O)NC(C)(C)C(=O)NCCC(=O)NC1(CN(C)C)CCC1 [Compound 6894, (2S)—N-[(1S)-1-[(1-{[(1S)-1-{[(1S)-1-({1-[(1-{[2-({1-[(dimethylamino)methyl]cyclobutyl}carbamoyl)ethyl]carbamoyl}-1-methylethyl)carbamoyl]-1-methylethyl}carbamoyl)-3-methylbutyl]carbamoyl}-3-methylbutyl]carbamoyl}-1-methylethyl)carbamoyl]-3-methylbutyl]-2-{[(2S)-1-(2-methyl-1,3-oxazole-4-carbonyl)pyrrolidin-2-yl]formamido}octanamide] ({Oxazole4CO(2-Me)}-P[Aoc(2)]L[Aib]LL[Aib][Aib][βAla]-{NH(1-CH2NMe2-cBu)}) | 383 | 20.6 | 4740 |  | 
8 |  | COc1ccc(C[C@H](NC(=O)[C@@H]2CCCN2C(=O)c2coc(C)n2)C(=O)N[C@@H](CC(C)C)C(=O)NC(C)(C)C(=O)N[C@@H](CC(C)C)C(=O)N[C@@H](CC(C)C)C(=O)NC(C)(C)C(=O)NC(C)(C)C(=O)NCCC(=O)NC2(CN(C)C)CCC2)cc1 [Compound 6896, (2S)-N-(1-{[(1S)-1-{[(1S)-1-({1-[(1-{[2-({1-[(dimethylamino)methyl]cyclobutyl}carbamoyl)ethyl]carbamoyl}-1-methylethyl)carbamoyl]-1-methylethyl}carbamoyl)-3-methylbutyl]carbamoyl}-3-methylbutyl]carbamoyl}-1-methylethyl)-2-[(2S)-3-(4-methoxyphenyl)-2-{[(2S)-1-(2-methyl-1,3-oxazole-4-carbonyl)pyrrolidin-2-yl]formamido}propanamido]-4-methylpentanamide] ({Oxazole4CO(2-Me)}-PY(Me)L[Aib]LL[Aib][Aib][βAla]-{NH(1-CH2NMe2-cBu)}) | 1640 |  |  | 236 | 8490
9 |  | Cc1nc(C(=O)N2CCC[C@@H]2C(=O)N[C@H](CCC2CCCCC2)C(=O)N[C@H](CC(C)C)C(=O)NC(C)(C)C(=O)N[C@H](CC(C)C)C(=O)N[C@H](CC(C)C)C(=O)NC(C)(C)C(=O)NC(C)(C)C(=O)NCCC(=O)NC2(CN(C)C)CCC2)co1 [Compound 7050, (2R)-2-[(2R)-4-cyclohexyl-2-{[(2R)-1-(2-methyl-1,3-oxazole-4-carbonyl)pyrrolidin-2-yl]formamido}butanamido]-N-(1-{[(1R)-1-{[(1R)-1-({1-[(1-{[2-({1-[(dimethylamino)methyl]cyclobutyl}carbamoyl)ethyl]carbamoyl}-1-methylethyl)carbamoyl]-1-methylethyl}carbamoyl)-3-methylbutyl]carbamoyl}-3-methylbutyl]carbamoyl}-1-methylethyl)-4-methylpentanamide] ({Oxazole4CO(2-Me)}-[dP][d(hCha)][dL][Aib][dL][dL][Aib][Aib][βAla]-{NH(1-CH2NMe2-cBu)}) | 43.7 | 5.1 | 4970 |  | 
